From the NIST ThermoML archive (doi:10.1016/j.jct.2015.06.014)

Assay: molar heat capacity at constant pressure
Settings: Liquid, Large sample (1 g) DSC

FC(F)(F)CC(F)(F)F [1,1,1,3,3,3-hexafluoropropane]
molar heat capacity at constant pressure [J/K/mol]
Settings	1480 kPa	2490 kPa	3540 kPa	4560 kPa	5410 kPa
315.15 K	195.67	193.7	192.48	191.42	190.05
320.15 K	198.71	196.59	194.91	193.7	192.78
325.15 K	202.06	199.78	197.95	196.43	195.67
330.15 K	205.71	203.28	201.45	199.78	199.02
335.15 K	209.36	207.08	205.1	203.28	202.21
340.15 K	213.46	210.73	208.6	206.77	205.56
345.15 K	218.02	214.83	212.25	210.27	208.9
350.15 K	223.34	219.24	216.35	214.07	212.4
355.15 K	–	224.56	221.22	218.33	216.35
360.15 K	–	231.1	226.84	223.5	221.06
365.15 K	–	239.92	233.53	230.49	227.45

FC(F)CC(F)(F)F [1,1,1,3,3-pentafluoropropane]
molar heat capacity at constant pressure [J/K/mol]
Settings	1590 kPa	2520 kPa	3480 kPa	4530 kPa	5500 kPa
315.15 K	184.58	184.05	183.78	182.98	182.44
320.15 K	185.79	185.12	184.72	183.91	183.24
325.15 K	187.8	186.73	186.19	185.39	184.58
330.15 K	191.02	189.95	189.01	188.07	187.13
335.15 K	195.31	194.37	193.16	191.82	191.02
340.15 K	200.13	199.2	197.85	196.25	195.44
345.15 K	204.83	204.02	202.55	200.94	200.13
350.15 K	209.52	208.44	207.1	205.5	204.56
355.15 K	214.07	212.73	211.66	210.05	208.98
360.15 K	219.3	217.69	216.76	214.74	213.67
365.15 K	226.54	224.26	222.65	220.51	219.44
